“And” between values parts separate entries of the source, which are not always exact repeats. Identical values can stand only once. Toxic doses and inconclusive results are not listed.
Test system: L1210 leukemia ip in BDF1 mice, survival T/C
Experiment: NCI In Vivo Anticancer Drug Screen. Data for tumor model L1210 Leukemia (intraperitoneal) in B6D2F1 (BDF1) mice
Conditions: endpoint: mean survival time, higher = longer survival
How it was run: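 Antitumor effect is assessed in tumor-bearing animals. Survival in the compound arm is compared with a vehicle-dosed control arm and expressed as their quotient.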

[1] = dose: 50.0 mg/kg/injection, schedule: Q04DX003 (ip), vehicle: Klucel (hydroxypropylcellulose) (HPC)
[2] = dose: 100.0 mg/kg/injection, schedule: Q01DX009 (ip), vehicle: Klucel (hydroxypropylcellulose) (HPC)
[3] = dose: 100.0 mg/kg/injection, schedule: Q04DX003 (ip), vehicle: Klucel (hydroxypropylcellulose) (HPC)
[4] = dose: 200.0 mg/kg/injection, schedule: Q01DX009 (ip), vehicle: Klucel (hydroxypropylcellulose) (HPC)
[5] = dose: 200.0 mg/kg/injection, schedule: Q04DX003 (ip), vehicle: Klucel (hydroxypropylcellulose) (HPC)
[6] = dose: 400.0 mg/kg/injection, schedule: Q01DX009 (ip), vehicle: Klucel (hydroxypropylcellulose) (HPC)
[7] = dose: 400.0 mg/kg/injection, schedule: Q04DX003 (ip), vehicle: Klucel (hydroxypropylcellulose) (HPC)
[8] = dose: 100.0 mg/kg/injection, schedule: Q04DX003 (ip), vehicle: saline with Tween-80
[9] = dose: 200.0 mg/kg/injection, schedule: Q04DX003 (ip), vehicle: saline with Tween-80
[10] = dose: 400.0 mg/kg/injection, schedule: Q04DX003 (ip), vehicle: saline with Tween-80
[11] = dose: 100.0 mg/kg/injection, schedule: Q01DX001 (ip), vehicle: saline
[12] = dose: 200.0 mg/kg/injection, schedule: Q01DX001 (ip), vehicle: saline
[13] = dose: 400.0 mg/kg/injection, schedule: Q01DX001 (ip), vehicle: saline
[14] = dose: 100.0 mg/kg/injection, schedule: Q01DX001 (ip), vehicle: saline with Tween-80
[15] = dose: 200.0 mg/kg/injection, schedule: Q01DX001 (ip), vehicle: saline with Tween-80

SMILES: CN=C(N)c1ccc(NC(=O)/C=C\c2ccc(C(=O)Nc3ccc(C(N)=NC)cc3)cc2)cc1
- T/C (dose: 1.88 mg/kg/injection, schedule: Q01DX Z (ip), vehicle: saline): 112 % of control
- T/C (dose: 3.75 mg/kg/injection, schedule: Q01DX Z (ip), vehicle: saline): 119 % of control
- T/C (dose: 7.5 mg/kg/injection, schedule: Q01DX Z (ip), vehicle: saline): 122 % of control
- T/C (dose: 60.0 mg/kg/injection, schedule: Q01DX Z (ip), vehicle: saline): 233 % of control
- T/C (dose: 120.0 mg/kg/injection, schedule: Q01DX Z (ip), vehicle: saline): 206 % of control
- T/C (dose: 480.0 mg/kg/injection, schedule: Q01DX Z (ip), vehicle: saline): 96 % of control

SMILES: CC(=O)C1CCC2(C)CCC(=O)C(C)C2C1 (stereo not drawn)
- T/C [1]: 107 % of control
- T/C (dose: 100.0 mg/kg/injection, schedule: Q01DX001 (ip), vehicle: Klucel (hydroxypropylcellulose) (HPC)): 104 % of control
- T/C [2]: 100 % of control
- T/C [3]: 104 % of control
- T/C (dose: 200.0 mg/kg/injection, schedule: Q01DX001 (ip), vehicle: Klucel (hydroxypropylcellulose) (HPC)): 106 % of control
- T/C [4]: 100 % of control
- T/C [5]: 101 % of control
- T/C (dose: 400.0 mg/kg/injection, schedule: Q01DX001 (ip), vehicle: Klucel (hydroxypropylcellulose) (HPC)): 101 % of control
- T/C [6]: 98 % of control
- T/C [7]: 101 % of control

SMILES: O=C(NC1CCCCC1)c1ccccc1
- T/C [3]: 100 % of control
- T/C [5]: 93 % of control
- T/C [7]: 96 % of control

SMILES: COC1OC(COC(=O)c2ccc([N+](=O)[O-])cc2)C2SC12 (stereo not drawn)
- T/C [3]: 104 % of control
- T/C [5]: 97 % of control
- T/C [7]: 97 % of control

SMILES: COC1OC(COC(C)=O)C(OC(C)=O)C(OC(C)=O)[CH]1[Hg][O]C(C)=O (stereo not drawn)
- T/C (dose: 6.25 mg/kg/injection, schedule: Q04DX003 (ip), vehicle: saline): 96 % of control
- T/C (dose: 12.5 mg/kg/injection, schedule: Q04DX003 (ip), vehicle: saline): 98 % of control
- T/C (dose: 25.0 mg/kg/injection, schedule: Q04DX003 (ip), vehicle: saline): 92 % of control

SMILES: c1ccc([Se+](c2ccccc2)c2ccccc2)cc1
- T/C (dose: 0.22 mg/kg/injection, schedule: Q01DX009 (ip), vehicle: Klucel (hydroxypropylcellulose) (HPC)): 98 % of control
- T/C (dose: 0.39 mg/kg/injection, schedule: Q01DX009 (ip), vehicle: saline): 94 % of control
- T/C (dose: 0.45 mg/kg/injection, schedule: Q01DX009 (ip), vehicle: Klucel (hydroxypropylcellulose) (HPC)): 110 % of control
- T/C (dose: 0.78 mg/kg/injection, schedule: Q01DX009 (ip), vehicle: saline): 97 % of control
- T/C (dose: 1.56 mg/kg/injection, schedule: Q01DX009 (ip), vehicle: saline): 87 % of control

SMILES: CCCCCCCCCCCCCCCCN(C)c1ccc([N+](=O)[O-])cc1
- T/C [3]: 94 % of control
- T/C [5]: 96 % of control
- T/C [7]: 96 % of control

SMILES: N#CCCP(=O)(CCC#N)CCP(=O)(CCC#N)CCC#N
- T/C [8]: 91 % of control
- T/C [9]: 91 % of control
- T/C [10]: 94 % of control

SMILES: O=C1NC(=O)C(c2ccccc2)(C2CC2)N1 (stereo not drawn)
- T/C [1]: 107 % of control
- T/C [11]: 93 % of control
- T/C [3]: 95 % of control
- T/C [12]: 93 % of control
- T/C [5]: 101 % of control
- T/C [13]: 98 % of control

SMILES: CN(C)c1ccc(-c2nc3nc[nH]c(=O)c3[nH]2)cc1
- T/C (dose: 5.0 mg/kg/injection, schedule: Q01DX001 (ip), vehicle: saline): 100 % of control
- T/C (dose: 10.0 mg/kg/injection, schedule: Q01DX001 (ip), vehicle: saline): 96 % of control
- T/C (dose: 20.0 mg/kg/injection, schedule: Q01DX001 (ip), vehicle: saline): 96 % of control
- T/C (dose: 40.0 mg/kg/injection, schedule: Q01DX001 (ip), vehicle: saline): 96 % of control
- T/C (dose: 80.0 mg/kg/injection, schedule: Q01DX001 (ip), vehicle: saline): 96 % of control

SMILES: Nc1ccc(S(=O)(=O)c2ccc(NCCc3ccccn3)cc2)cc1
- T/C [8]: 97 % of control
- T/C [9]: 105 % of control
- T/C [10]: 100 % of control

SMILES: Fc1c(F)c(F)c(-c2c(F)c(F)c(-c3c(F)c(F)c(-c4c(F)c(F)c(F)c(F)c4F)c(F)c3F)c(F)c2F)c(F)c1F
- T/C [14]: 88 % of control
- T/C [15]: 88 % of control
- T/C (dose: 400.0 mg/kg/injection, schedule: Q01DX001 (ip), vehicle: saline with Tween-80): 88 % of control

SMILES: COc1cccc(/C=N/Nc2nnc(N/N=C/c3cccc(OC)c3)c3ccccc23)c1
- T/C (dose: 50.0 mg/kg/injection, schedule: Q01DX001 (ip), vehicle: carboxymethylcellulose (CMC)): 101 % of control
- T/C (dose: 100.0 mg/kg/injection, schedule: Q01DX001 (ip), vehicle: carboxymethylcellulose (CMC)): 107 % of control
- T/C (dose: 200.0 mg/kg/injection, schedule: Q01DX001 (ip), vehicle: carboxymethylcellulose (CMC)): 103 % of control

SMILES: Cc1cc(S(=O)(=O)F)ccc1O
- T/C [2]: 106 % of control
- T/C [4]: 103 % of control
- T/C [6]: 98 % of control

SMILES: CS(=O)(=O)OCC(=O)NCCCNC(=O)COS(C)(=O)=O
- T/C (dose: 17.5 mg/kg/injection, schedule: Q01DX013 (ip), vehicle: other): 123 % of control
- T/C (dose: 18.8 mg/kg/injection, schedule: Q01DX015 (ip), vehicle: saline): 122 % of control
- T/C (dose: 35.0 mg/kg/injection, schedule: Q01DX013 (ip), vehicle: other): 121 % of control
- T/C (dose: 54.0 mg/kg/injection, schedule: Q01DX009 (ip), vehicle: saline): 166 % of control
- T/C (dose: 75.0 mg/kg/injection, schedule: Q01DX015 (ip), vehicle: saline): 155 % of control
- T/C (dose: 80.0 mg/kg/injection, schedule: Q01DX009 (ip), vehicle: saline): 175 % of control
- T/C (dose: 120.0 mg/kg/injection, schedule: Q01DX009 (ip), vehicle: saline): 202 % of control
- T/C (dose: 150.0 mg/kg/injection, schedule: Q01DX015 (ip), vehicle: saline): 150 % of control
- T/C (dose: 180.0 mg/kg/injection, schedule: Q01DX009 (ip), vehicle: saline): 164 % of control and 195 % of control
- T/C (dose: 256.0 mg/kg/injection, schedule: Q01DX009 (ip), vehicle: saline): 118 % of control

SMILES: CCC[CH2][Sn]([I])([CH2]I)[CH2]CCC
- T/C (dose: 6.25 mg/kg/injection, schedule: Q04DX002 (ip), vehicle: saline with Tween-80): 112 % of control
- T/C (dose: 12.5 mg/kg/injection, schedule: Q04DX002 (ip), vehicle: saline with Tween-80): 112 % of control

SMILES: CCOC(=O)c1cnc(SC)nc1NNc1ccc([N+](=O)[O-])cc1
- T/C [14]: 90 % of control
- T/C [15]: 92 % of control

SMILES: O=C(COC(=O)c1ccccc1Br)c1ccc(-c2ccccc2)cc1
- T/C [11]: 94 % of control
- T/C [12]: 100 % of control
- T/C [13]: 91 % of control

SMILES: N#Cc1cccc(OCCCCOc2ccccc2)c1
- T/C [2]: 89 % of control
- T/C [4]: 109 % of control
- T/C [6]: 95 % of control

SMILES: COc1ccc(C(=S)N2CCN(c3cccc(Cl)c3)CC2)cc1
- T/C [11]: 96 % of control
- T/C [12]: 91 % of control
- T/C [13]: 91 % of control

SMILES: c1ccc(-c2nnc(-c3ccccc3)o2)cc1
- T/C (dose: 50.0 mg/kg/injection, schedule: Q01DX009 (ip), vehicle: Klucel (hydroxypropylcellulose) (HPC)): 95 % of control
- T/C [2]: 101 % of control
- T/C [4]: 94 % of control

SMILES: N#Cc1ccc(P(=O)(O)O)cc1
- T/C (dose: 75.0 mg/kg/injection, schedule: Q01DX001 (ip), vehicle: saline): 102 % of control
- T/C (dose: 150.0 mg/kg/injection, schedule: Q01DX001 (ip), vehicle: saline): 94 % of control

SMILES: Cc1nc2cc(Cl)cc([N+](=O)[O-])c2nc1C
- T/C [2]: 91 % of control
- T/C [4]: 93 % of control
- T/C [6]: 91 % of control

SMILES: CN(N=O)C(=O)NNC(=O)N(C)N=O
- T/C (dose: 6.25 mg/kg/injection, schedule: Q01DX Z (ip), vehicle: carboxymethylcellulose (CMC)): 103 % of control
- T/C (dose: 20.0 mg/kg/injection, schedule: Q01DX Z (ip), vehicle: carboxymethylcellulose (CMC)): 152 % of control
- T/C (dose: 50.0 mg/kg/injection, schedule: Q01DX Z (ip), vehicle: carboxymethylcellulose (CMC)): 89 % of control

Source: PubChem BioAssay AID248 (DTP/NCI, 2004)
